pEC50: −log10 of the molar value.
How the values were obtained:
[1] = molecular target: T1, Vitamin D3 receptor (Bos taurus, UniProt Q28037); assay: Displacement of [3H]1,25-(OH)2D3 from vitamin D receptor in bovine thymus
T1 sequence (Q28037 whole entry): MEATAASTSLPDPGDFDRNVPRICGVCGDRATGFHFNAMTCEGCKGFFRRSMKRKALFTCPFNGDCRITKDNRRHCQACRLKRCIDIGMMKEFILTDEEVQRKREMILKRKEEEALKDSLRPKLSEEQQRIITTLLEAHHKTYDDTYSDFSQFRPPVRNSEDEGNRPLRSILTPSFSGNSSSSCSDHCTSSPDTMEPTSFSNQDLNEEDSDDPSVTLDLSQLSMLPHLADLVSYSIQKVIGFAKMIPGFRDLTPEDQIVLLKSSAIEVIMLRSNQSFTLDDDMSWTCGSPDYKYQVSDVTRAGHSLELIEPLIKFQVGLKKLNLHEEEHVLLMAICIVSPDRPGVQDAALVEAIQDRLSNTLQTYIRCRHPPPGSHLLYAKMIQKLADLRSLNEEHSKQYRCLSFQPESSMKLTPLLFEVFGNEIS

[2] = test system: HL-60; assay: Induction of human HL60 cell differentiation to monocytes by NBT reduction assay; type: functional, cell-based
[3] = molecular target: T2, Vitamin D3 receptor (Homo sapiens, UniProt P11473); assay: Induction of transactivation of human VDR responsive gene in COS7 cells by rat osteopontin luciferase reporter gene assay; type: cell-based, COS-7
T2 sequence (P11473 whole entry): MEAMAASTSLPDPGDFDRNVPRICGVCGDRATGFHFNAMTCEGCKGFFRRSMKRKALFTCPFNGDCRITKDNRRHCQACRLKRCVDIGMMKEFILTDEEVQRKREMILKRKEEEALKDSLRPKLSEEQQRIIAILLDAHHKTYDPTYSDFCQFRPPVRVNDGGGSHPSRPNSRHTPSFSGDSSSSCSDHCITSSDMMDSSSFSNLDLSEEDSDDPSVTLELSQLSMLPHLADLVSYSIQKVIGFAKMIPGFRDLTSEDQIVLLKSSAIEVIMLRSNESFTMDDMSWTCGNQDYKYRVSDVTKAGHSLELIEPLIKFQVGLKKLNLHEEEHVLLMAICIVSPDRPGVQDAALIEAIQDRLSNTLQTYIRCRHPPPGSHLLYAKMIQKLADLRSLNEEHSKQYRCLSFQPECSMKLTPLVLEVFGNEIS

[4] = test system: Rattus norvegicus; assay: Effect on bone calcium mobilization in low-calcium diet fed rat assessed by measuring at 650 pmol/day, ip after 7 days; type: functional
[5] = test system: Rattus norvegicus; assay: Effect on bone calcium mobilization in low-calcium diet fed rat at 325 pmol/day, ip after 7 days; type: functional
[6] = test system: Rattus norvegicus; assay: Effect on intestinal calcium transport in low-calcium diet fed rat assessed as serosal:mucosal ratio of calcium at 100 pmol/day, ip after 7 days; type: functional
[7] = test system: Rattus norvegicus; assay: Effect on intestinal calcium transport in low-calcium diet fed rat assessed as serosal:mucosal ratio of calcium at 650 pmol/day, ip after 7 days; type: functional
[8] = test system: Rattus norvegicus; assay: Effect on intestinal calcium transport in low-calcium diet fed rat assessed as serosal:mucosal ratio of calcium at 325 pmol/day, ip after 7 days; type: functional
[9] = test system: Rattus norvegicus; assay: Effect on bone calcium mobilization in low-calcium diet fed rat at 100 pmol/day, ip after 7 days; type: functional

Row | pEC50 [1] | pEC50 [2] | pEC50 [3] | Structure (SMILES) | Activity [4] | Activity [5] | Ratio [6] | Ratio [7] | Ratio [8] | Activity [9]
1 | 9.05 | 8.98 | 9.70 | C=C1/C(=C\C=C2/CCC[C@@]3(C)C2CC[C@@H]3[C@@H](C)[C@H](CCCC)CCC(C)(C)O)C[C@@H](O)C[C@@H]1O (stereo partly drawn) | – | – | – | – | – | –
2 | 10.74 | 10.24 | 11.70 | C=C1/C(=C\C=C2/CCC[C@@]3(C)C2CC[C@@H]3[C@@H](C)[C@H](CC)CCC(C)(C)O)C[C@@H](O)C[C@@H]1O (stereo partly drawn) | 6.2 | 5 | 5.7 | 8.5 | 6.3 | 3.9
3 | – | – | – | C=C1/C(=C\C=C2/CCC[C@]3(C)[C@@H]([C@H](C)CCCC(C)(C)O)CC[C@@H]23)C[C@@H](O)C[C@@H]1O [CALCITRIOL] | – | 5.5 | – | – | – | 4.6
4 | 10.51 | 10.74 | 11.52 | C=C1/C(=C\C=C2/CCC[C@@]3(C)C2CC[C@@H]3[C@@H](C)[C@H](C)CCC(C)(C)O)C[C@@H](O)C[C@@H]1O (stereo partly drawn) | 8.4 | 8.1 | 7 | 12.2 | 8.2 | 5
